Each structure is given as a SMILES string.

Assay [1] relates to acylamino acid racemase. Description: Influences of metal ions on enzyme activities. It is filed as biochemical, Streptomyces sp. Y-53. Particulars: for Relative enzyme activity, Additive Concentration 1 mM / Relative enzyme activity, Additive Concentration 10 mM: no additives taken as 100, cobalt chloride excluded; for Relative enzyme activity, Additive Concentration 1 mM: final concentration 1 mM; for Relative enzyme activity, Additive Concentration 10 mM: final concentration 10 mM. On the procedure: Enzyme activities are determined by means of a mixed reaction system comprising 50 μl of a solution of the enzyme, 40 μl of a solution of the substrate, 10 μl of an L-aminoacylase solution and 400 μl of a 50 mM Tris-HCl buffer (pH 7.5 ). As the enzyme solution, a solution prepared by dissolving an acylamino acid racemase standard sample in a Tris-HCl buffer (pH 7.5 ) to 1 to 0.2 unit/ml was used; as the L-aminoacylase solution, a solution prepared by dissolving an L-aminoacylase standard sample (a commercially available product such as that produced by Sigma Co. may be used, but the L-aminoacylase extracted and purified from Y-53 strain was used in the present invention) in a Tris-HCl buffer (pH 7.5) to 40 to 8 units/ml.
The above solutions are mixed together by the sequential addition of the Tris-HCl buffer, substrate solution, L-aminoacylase solution and enzyme solution in this order, and reaction is initiated at 30° C. simultaneously with the addition of the enzyme solution.
For the determination of enzyme activities, the amount of methionine produced in the reaction system is determined by high performance liquid chromatography, and the enzyme activity corresponding to the production of 1 μmol/min. methionine is expressed as 1 unit. When a ymM concentration of methionine has been produced in the reaction system during a reaction time of x minutes, the activity (αunit) of the enzyme in 50 μl solution is calculated by the following equation: [formula]
In Table 4, the enzyme activities are presented in relative activities on the basis of the values obtained in the case of no additives as taken as 100.

Assay [2] concerns acylamino acid racemase. Description: Substrate specificity of acylamino acid racemase (enzyme activity determination coupled with aminoacylase). Particulars: amount of produced methionine taken as 100, free amino acids checked by amino acid oxidase and HPLC; for Relative Activity (D-form substrate): L-aminoacylase coupled; for Relative Activity (L-form substrate): D-aminoacylase of Y-53 strain coupled. It is filed as biochemical, Streptomyces sp. Y-53.
Description: Note that the relative activities in Table 3, where N^α -acylamino acids were used as substrates, were determined by the method of enzyme activity determination described in the term .circle.3 , with the values representing the found amount (mM) of the produced α-amino acids corresponding to respective substrates as calculated on the basis of the amount of produced methionine taken as 100. When the substrate was an L-N^α -acylamino acid, D-aminoacylase as produced by Y-53 strain was used in place of L-aminoacylase.

Where [3] appears, read: concentration not singled out (1 mM and 10 mM examined).

`O.O.O.O.O.O.O.O.O.O.O.O.O.O.O.O.O=S(=O)([O-])[O-].O=S(=O)([O-])[O-].O=S(=O)([O-])[O-].[Al+3].[Al+3]` [Al2 (SO4)3 .16H2 O]: in the assay with acylamino acid racemase [1] (at 10 mM), the “Effect on enzyme activity (in words)” value was “inhibit the enzyme activity”. In the assay with acylamino acid racemase [1], the “Relative enzyme activity, Additive Concentration 1 mM” value is recorded as 79 and the “Relative enzyme activity, Additive Concentration 10 mM” value is 0. With `O.O.[Ba+2].[Cl-].[Cl-]` [BaCl2 .2H2 O], in the assay with acylamino acid racemase [1], the “Relative enzyme activity, Additive Concentration 1 mM” value is reported as 85 and the “Relative enzyme activity, Additive Concentration 10 mM” value is 120. Consider `[Ca+2].[Cl-].[Cl-]` [CaCl2], for which, in the assay with acylamino acid racemase [1], the “Relative enzyme activity, Additive Concentration 1 mM” value is 95 and the “Relative enzyme activity, Additive Concentration 10 mM” value stood at 100. As to `O.O.O.O.O.O.[Cl-].[Cl-].[Co+2]` [CoCl2 .6H2 O], the “Effect on enzyme activity (in words)” value is given as “hardly activate the enzyme” in the assay with acylamino acid racemase [1] (at 10 mM) and “noticeable activating effect” in the assay with acylamino acid racemase [1] (low concentrations (around 1 mM)). In addition, the “Relative enzyme activity, Additive Concentration 10 mM” value in the assay on acylamino acid racemase [1] is 140. With `O.O.O.O.O.O.[Cl][Cr]([Cl])[Cl]` [CrCl3 .6H2 O], in the assay on acylamino acid racemase [1], the “Relative enzyme activity, Additive Concentration 1 mM” value was 96 and the “Relative enzyme activity, Additive Concentration 10 mM” value was determined as 100. Take `O.O.O.O.O.O=S(=O)([O-])[O-].[Cu+2]` [CuSO4 .5H2 O]: the “Effect on enzyme activity (in words)” value with acylamino acid racemase [1] (setting [3]) is “noticeable inhibitory effect”. In the assay on acylamino acid racemase [1], the “Relative enzyme activity, Additive Concentration 1 mM” value is 0 and the “Relative enzyme activity, Additive Concentration 10 mM” value amounted to 0. Turning to `C[C@@H](N)C(=O)O` [D-alanine], in the assay with acylamino acid racemase [2], the “Relative Activity (D-form substrate)” value was found to be 0. Same read-out and setting: to `CC(C)C[C@@H](N)C(=O)O` [D-leucine] belongs 0; to `CSCC[C@@H](N)C(=O)O` [D-methionine], 0; to `N[C@H](Cc1ccccc1)C(=O)O` [D-phenylalanine], 0.

For the compound `N[C@H](Cc1c[nH]c2ccccc12)C(=O)O` [D-tryptophan], in the assay with acylamino acid racemase [2], the “Relative Activity (D-form substrate)” value is given as 0. As to `CC(C)[C@@H](N)C(=O)O` [D-valine], in the assay with acylamino acid racemase [2], the “Relative Activity (D-form substrate)” value was 0. `O=C(O)CN(CCN(CC(=O)O)CC(=O)O)CC(=O)O` [EDTA, reference compound]: the “Effect on enzyme activity (in words)” value in the assay with acylamino acid racemase [1] (at 10 mM) is recorded as “noticeable inhibitory effect”. Besides, in the assay on acylamino acid racemase [1], the “Relative enzyme activity, Additive Concentration 1 mM” value is listed as 68 and the “Relative enzyme activity, Additive Concentration 10 mM” value stood at 0. Take `O.O.O.O.O.O.O.O=S(=O)([O-])[O-].[Fe+2]` [FeSO4 .7H2 O]: in the assay on acylamino acid racemase [1], the “Relative enzyme activity, Additive Concentration 1 mM” value is given as 100 and the “Relative enzyme activity, Additive Concentration 10 mM” value is 560. As to `[Cl-].[K+]` [KCl], in the assay with acylamino acid racemase [1], the “Relative enzyme activity, Additive Concentration 1 mM” value is 110 and the “Relative enzyme activity, Additive Concentration 10 mM” value came out at 130. Consider `C[C@H](N)C(=O)O` [L-alanine], for which, in the assay with acylamino acid racemase [2], the “Relative Activity (L-form substrate)” value is recorded as 0. In the case of `CC(C)C[C@H](N)C(=O)O` [L-leucine], the “Relative Activity (L-form substrate)” value in the assay with acylamino acid racemase [2] came to 0.

In the case of `CSCC[C@H](N)C(=O)O` [L-methionine], in the assay with acylamino acid racemase [2], the “Relative Activity (L-form substrate)” value is 0. As for `N[C@@H](Cc1ccccc1)C(=O)O` [L-phenylalanine], the “Relative Activity (L-form substrate)” value in the assay with acylamino acid racemase [2] is 0. On the same count and under the same terms, the figure for `N[C@@H](Cc1c[nH]c2ccccc12)C(=O)O` [L-tryptophan] is 0.

Turning to `CC(C)[C@H](N)C(=O)O` [L-valine], the “Relative Activity (L-form substrate)” value in the assay with acylamino acid racemase [2] came to 0. As to `[Cl-].[Li+]` [LiCl], in the assay with acylamino acid racemase [1], the “Relative enzyme activity, Additive Concentration 1 mM” value came to 100 and the “Relative enzyme activity, Additive Concentration 10 mM” value stood at 120. As for `O.O.O.O.O.O.O.O=S(=O)([O-])[O-].[Mg+2]` [MgSO4 .7H2 O], the “Effect on enzyme activity (in words)” value in the assay with acylamino acid racemase [1] (setting [3]) is given as “the activating effect is greater at 10 mM than at 1 mM”. In addition, the “Relative enzyme activity, Additive Concentration 1 mM” value in the assay on acylamino acid racemase [1] came out at 890. As for `O.O.O.O.O.O.O.O=S(=O)([O-])[O-].[Mn+2]` [MnSO4 .7H2 O], the “Relative enzyme activity, Additive Concentration 1 mM” value with acylamino acid racemase [1] is reported as 780. Consider `CC(=O)N[C@H](C)C(=O)O` [N-acetyl-D-alanine], for which, in the assay with acylamino acid racemase [2], the “Relative Activity (D-form substrate)” value came out at 33.

As for `CC[C@H](C)[C@@H](NC(C)=O)C(=O)O` [N-acetyl-D-allo-isoleucine], in the assay with acylamino acid racemase [2], the “Relative Activity (D-form substrate)” value is 33.

Turning to `CC(=O)N[C@H](CC(C)C)C(=O)O` [N-acetyl-D-leucine], the “Relative Activity (D-form substrate)” value in the assay on acylamino acid racemase [2] worked out at 37.

On to `CSCC[C@@H](NC(C)=O)C(=O)O` [N-acetyl-D-methionine], for which the “Relative Activity (D-form substrate)” value in the assay on acylamino acid racemase [2] was determined as 100. As for `CC(=O)N[C@H](Cc1ccccc1)C(=O)O` [N-acetyl-D-phenylalanine], in the assay on acylamino acid racemase [2], the “Relative Activity (D-form substrate)” value is 64. On the same count and under the same terms, to `CC(=O)N[C@H](Cc1c[nH]c2ccccc12)C(=O)O` [N-acetyl-D-tryptophan] belongs 10; to `CC(=O)N[C@@H](C(=O)O)C(C)C` [N-acetyl-D-valine], 35. With `CC(=O)N[C@@H](C)C(=O)O` [N-acetyl-L-alanine], the “Relative Activity (L-form substrate)” value with acylamino acid racemase [2] turned out to be 21. Still for that read-out and setting: the figure for `CC(=O)N[C@@H](CC(C)C)C(=O)O` [N-acetyl-L-leucine] is 74; for `CSCC[C@H](NC(C)=O)C(=O)O` [N-acetyl-L-methionine] it is 100; for `CC(=O)N[C@@H](Cc1ccccc1)C(=O)O` [N-acetyl-L-phenylalanine] it is 84. Regarding `CC(=O)N[C@@H](Cc1c[nH]c2ccccc12)C(=O)O` [N-acetyl-L-tryptophan], the “Relative Activity (L-form substrate)” value in the assay with acylamino acid racemase [2] is given as 8. In the case of `CC(=O)N[C@H](C(=O)O)C(C)C` [N-acetyl-L-valine], the “Relative Activity (L-form substrate)” value in the assay with acylamino acid racemase [2] was determined as 19.

With `C[C@@H](NC(=O)c1ccccc1)C(=O)O` [N-benzoyl-D-alanine], in the assay on acylamino acid racemase [2], the “Relative Activity (D-form substrate)” value is given as 14. Turning to `O=C(CCl)N[C@H](Cc1ccccc1)C(=O)O` [N-chloroacetyl-D-phenylalanine], the “Relative Activity (D-form substrate)” value with acylamino acid racemase [2] is on record as 90. Regarding `CC(C)[C@@H](NC(=O)CCl)C(=O)O` [N-chloroacetyl-D-valine], the “Relative Activity (D-form substrate)” value with acylamino acid racemase [2] worked out at 80. With `O=C(CCl)N[C@@H](Cc1ccccc1)C(=O)O` [N-chloroacetyl-L-phenylalanine], in the assay on acylamino acid racemase [2], the “Relative Activity (L-form substrate)” value is 112. The same measure, in the same setting: to `CC(C)[C@H](NC(=O)CCl)C(=O)O` [N-chloroacetyl-L-valine] belongs 105.

Turning to `CSCC[C@@H](NC=O)C(=O)O` [N-formyl-D-methionine], in the assay with acylamino acid racemase [2], the “Relative Activity (D-form substrate)” value is given as 40. As for `CSCC[C@H](NC=O)C(=O)O` [N-formyl-L-methionine], the “Relative Activity (L-form substrate)” value in the assay with acylamino acid racemase [2] amounted to 63. In the case of `[Cl-].[Na+]` [NaCl], in the assay on acylamino acid racemase [1], the “Relative enzyme activity, Additive Concentration 1 mM” value worked out at 100 and the “Relative enzyme activity, Additive Concentration 10 mM” value amounted to 130. Consider `O.O.[Na+].[Na+].[O]=[Mo](=[O])([O-])[O-]` [NaMoO4 .2H2 O], for which the “Effect on enzyme activity (in words)” value in the assay on acylamino acid racemase [1] (at 10 mM) was “inhibit the enzyme activity”. Also, in the assay on acylamino acid racemase [1], the “Relative enzyme activity, Additive Concentration 1 mM” value was found to be 96 and the “Relative enzyme activity, Additive Concentration 10 mM” value came out at 0. With `O.O.O.O.O.O.O=S(=O)([O-])[O-].[Ni+2]` [NiSO4 .6H2 O], in the assay with acylamino acid racemase [1], the “Relative enzyme activity, Additive Concentration 1 mM” value came to 460 and the “Relative enzyme activity, Additive Concentration 10 mM” value was determined as 0.

For the compound `[Cl][Pb][Cl]` [PbCl2], in the assay on acylamino acid racemase [1], the “Relative enzyme activity, Additive Concentration 1 mM” value came out at 78 and the “Relative enzyme activity, Additive Concentration 10 mM” value is 100. Consider `O=S(=O)([O-])[O-].[Sn+2]` [SnSO4], for which, in the assay with acylamino acid racemase [1], the “Relative enzyme activity, Additive Concentration 1 mM” value came to 92 and the “Relative enzyme activity, Additive Concentration 10 mM” value is 100. `O.O.O.O.O.O.[Cl-].[Cl-].[Sr+2]` [SrCl2 .6H2 O]: in the assay on acylamino acid racemase [1], the “Relative enzyme activity, Additive Concentration 1 mM” value came to 94 and the “Relative enzyme activity, Additive Concentration 10 mM” value was 110. For `O.O.O.O.O.O.O.O=S(=O)([O-])[O-].[Zn+2]` [ZnSO4 .7H2 O], in the assay on acylamino acid racemase [1], the “Relative enzyme activity, Additive Concentration 1 mM” value was found to be 810 and the “Relative enzyme activity, Additive Concentration 10 mM” value is 80.
